Results taken from patent US20210069152A1, “METHODS FOR TREATING HETEROTOPIC OSSIFICATION” (Clementia Pharmaceuticals Inc., priority 2016, published 2021).

What was measured:
[1] = system: heterotopic ossification in subjects with fibrodysplasia ossificans progressiva; experiment: Volume of new heterotopic ossification at flare-up site (x-ray / low-dose CT) in FOP patients, adult cohort dosing regimens; format: in vivo, human; conditions: for reduction in mean bone volume formation (new HO) relative to Placebo/Untreated group: 12 weeks
Method: FIGS. 3A and 3B are graphs showing a comparison of the volume of new heterotopic ossification between (i) episodic treatment of FOP patients (i.e., treatment during non-quiescent periods only and (ii) the treatment regimens of the present invention that include treatment during both quiescent and non-quiescent periods. Patients in the “Placebo/Untreated” group were treated with a sugar pill or untreated (28 patients). Patients in the “PVO Non-Quiescent Only” group were treated with either 20 mg palovarotene (PVO) daily for 28 days followed by 10 mg PVO daily for 56 days (47 patients) or 10 mg PVO daily for 14 days followed by 5 mg PVO daily for 28 days (9 patients). Patients in the “PVO Quiescent/Non-Quiescent” group were treated with 5 mg PVO daily during the quiescent period and with 20 mg PVO daily for 28 days (NQ loading dose) followed by 10 mg PVO daily for 56 days (NQ maintenance dose) following initiation of flare-up symptoms, i.e., initiation of a non-quiescent period (10 patients).
Adult cohort includes individuals who have achieved at least 90% skeletal maturity irrespective of age. Individuals in the adult cohort received palovarotene (neutral form) at 5 mg once daily as a non-flare-up based treatment (e.g., during periods when symptoms of a flare-up were not present). […]
Assessment of new HO at the flare-up site was evaluated using x-ray, and low-dose CT imaging was employed as a secondary imaging assessment. […] In order to ensure consistency and standardization, images were evaluated for the presence or absence of HO using two independent procedures, both of which were blinded to treatment group assignment. In the Primary Read process, two musculoskeletal radiologists independently compared baseline and post-baseline images within a single imaging modality.
The volume of new heterotopic ossification (HO), HO that occurred during the non-quiescent period, was assessed 12 weeks following initiation of treatment for the “Non-Quiescent Only” treatment group and 12 weeks after initiation of the 20 mg/day NQ loading dose in the “Quiescent/Non-Quiescent” treatment group.

[2] = system: heterotopic ossification in subjects with fibrodysplasia ossificans progressiva; experiment: Flare-up outcomes, open-label study (new HO by low-dose CT scan); format: in vivo, human; conditions: open-label extension study, 27 flare-ups treated with open-label palovarotene
Method: (§1) Sixty-seven flare-ups have been treated: 40 with double-blind medication (10 subjects received placebo, 9 subjects received palovarotene at 5 mg once daily for 2 weeks followed by 2.5 mg once daily for 4 weeks, and 21 subjects received palovarotene at 10 mg once daily for 2 weeks followed by 5 mg once daily for 4 weeks); and 27 received open-label palovarotene. Sixty-one of these 67 flare-ups have available results from post-baseline imaging (by low-dose CT scan). The results are summarized for the respective studies in FIGS. 1 and 2.

[3] = system: subjects with fibrodysplasia ossificans progressiva; experiment: Safety outcomes, double-blind study; format: in vivo, human
Method: as §1
The most frequently reported adverse events overall were dry skin (58.8%) and dry lips (32.4%).

[4] = system: subjects with fibrodysplasia ossificans progressiva; experiment: Safety outcomes, open-label study; format: in vivo, human
Method: as §1
The findings were similar in the open-label study (described in Example 1) in which the overall incidence of adverse events was 92.3% (12 of 13 subjects). Retinoid-associated adverse events were reported by all subjects; most were mild (69.2%) in severity. The most frequently reported adverse events overall were dry skin (69.2%) and pruritus (61.5%).

growth plate = experiment: Growth plate assessment by knee and hand/wrist radiographs in children; format: in vivo, human; conditions: acute 6-week treatment
Prrx1-R206H mice = experiment: Growth plate assessment in Prrx1-R206H mice; format: in vivo
Method: (§2) The effects of palovarotene on the growth plates were assessed.

wild-type mice = experiment: Growth plate assessment in wild-type mice; format: in vivo
Method: as §2

## CC1(C)CCC(C)(C)c2cc(Cn3cccn3)c(/C=C/c3ccc(C(=O)O)cc3)cc21 [palovarotene, 4-[(1E)-2-[5,6,7,8-Tetrahydro-5,5,8,8-tetramethyl-3-(1H-pyrazol-1-ylmethyl)-2-naphthalenyl]-ethenyl]-benzoic acid]
[1]; Non-Quiescent Only group (both doses pooled)
  reduction in mean bone volume formation (new HO) relative to Placebo/Untreated group: 75%
[1]; PVO Quiescent/Non-Quiescent: 5 mg daily quiescent, 20 mg daily 28 days then 10 mg daily 56 days after flare-up (10 patients), 12 weeks after start of NQ loading dose
  volume of new heterotopic ossification: 212 mm^3
[1]; Quiescent/Non-Quiescent group
  reduction in mean bone volume formation (new HO) relative to Placebo/Untreated group: 97%
[2]
  number of flare-ups with new HO: four
[3]
  dose reductions or discontinuations of treatment: no dose reductions or discontinuations of treatment
  incidence and severity of retinoid-associated adverse events, trend: dose-related increases in the incidence and severity
  severity of most retinoid-associated adverse events: mild or moderate
  trend of adverse event incidence across the treatment groups: dose-related increases across the treatment groups
[3]; 33 of 34 subjects with safety data, all treatment groups (placebo, 5/2.5 mg, 10/5 mg)
  overall incidence of adverse events: 97.1%
[3]; overall
  incidence of dry lips: 32.4%
  incidence of dry skin: 58.8%
[4]
  dose reductions or discontinuations of treatment: no dose reductions or discontinuations of treatment
  retinoid-associated adverse events mild in severity: 69.2%
  subjects reporting retinoid-associated adverse events: all subjects
[4]; 12 of 13 subjects
  overall incidence of adverse events: 92.3%
[4]; overall
  incidence of dry skin: 69.2%
  incidence of pruritus: 61.5%
Growth plate
  adverse effects on the growth plate: no adverse effects on the growth plate
Prrx1-R206H mice
  effect on long bone growth, growth plate organization and matrix deposition: preserved long bone growth and near-normalized growth plate organization and matrix deposition
Prrx1-R206H mice; daily dosing
  effect on histologic growth plate abnormalities and long bone length: reversed histologic growth plate abnormalities and shortened long bones
wild-type mice
  effect on growth plate: Adverse effects
